Measurements: patent publication US20260250290A1 (BRISTOL-MYERS SQUIBB COMPANY, priority 2023, published 2026)

molecular target: T1, full length SGK1 (Homo sapiens, UniProt O00141); test: SGK1 inhibition Assay A (Caliper LabChip electrophoretic separation of fluorescent peptide substrate and phosphorylated product); type: biochemical; conditions: Assay A; 20 μM ATP, 40 min incubation; read-out: SGK1 IC50
T1 construct: 125 μM full length SGK1 (Life Technologies Part #PR7358A); purchased Life Technologies PR7358A
T1 sequence (O00141 1-431): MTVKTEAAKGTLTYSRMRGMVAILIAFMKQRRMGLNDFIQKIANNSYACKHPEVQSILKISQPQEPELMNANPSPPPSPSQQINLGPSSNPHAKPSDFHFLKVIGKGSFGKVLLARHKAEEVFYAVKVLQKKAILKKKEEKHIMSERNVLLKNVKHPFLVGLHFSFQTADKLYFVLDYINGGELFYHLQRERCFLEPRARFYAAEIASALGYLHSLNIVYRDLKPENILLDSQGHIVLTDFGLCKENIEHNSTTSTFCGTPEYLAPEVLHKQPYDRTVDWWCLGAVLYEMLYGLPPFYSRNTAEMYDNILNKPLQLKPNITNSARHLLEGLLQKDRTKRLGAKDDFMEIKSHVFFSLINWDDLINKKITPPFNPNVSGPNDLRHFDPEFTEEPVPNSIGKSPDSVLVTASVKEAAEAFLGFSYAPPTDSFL

| IC50 [nM] | SMILES |
| --- | --- |
| 19 | CC(=O)N1CC=C(c2cc(N3CCC[C@@H](NC(=O)c4sc(C)nc4OC4CCNCC4)C3)c3c(N)ncnn23)C1 [Example 357E, (R)—N-(1-(7-(1-acetyl-2,5-dihydro-1H-pyrrol-3-yl)-4-aminopyrrolo[2,1-f][1,2,4]triazin-5-yl)piperidin-3-yl)-2-methyl-4-(piperidin-4-yloxy)thiazole-5-carboxamide] |
| 29 | CC(=O)N1CC=C(c2cc(N3CCC[C@@H](NC(=O)c4sc(C)nc4OC4CCN(C(C)C)CC4)C3)c3c(N)ncnn23)C1 [Example 358, (R)-N-(1-(7-(1-acetyl-2,5-dihydro-1H-pyrrol-3-yl)-4-aminopyrrolo[2,1-f][1,2,4]triazin-5-yl)piperidin-3-yl)-4-((1-isopropylpiperidin-4-yl)oxy)-2-methylthiazole-5-carboxamide] |
| 19 | Cc1nc(OC2CCN(C)CC2)c(C(=O)N[C@@H]2CCCN(c3cc(-c4ccc(C#N)nc4)n4ncnc(N)c34)C2)s1 [Example 362, (R)-N-(1-(4-amino-7-(6-cyanopyridin-3-yl)pyrrolo[2,1-f][1,2,4]triazin-5-yl)piperidin-3-yl)-2-methyl-4-((1-methylpiperidin-4-yl)oxy)thiazole-5-carboxamide] |
| 7 | Cc1nc(OC2CCN(C(C)C)CC2)c(C(=O)N[C@@H]2CCCN(c3cc(-c4ccc(C#N)nc4)n4ncnc(N)c34)C2)s1 [Example 363, (R)-N-(1-(4-amino-7-(6-cyanopyridin-3-yl)pyrrolo[2,1-f][1,2,4]triazin-5-yl)piperidin-3-yl)-4-((1-isopropylpiperidin-4-yl)oxy)-2-methylthiazole-5-carboxamide] |
| 12 | CC(=O)N1CC=C(c2cc(N3CCC[C@@H](NC(=O)c4[nH]c5ccccc5c4OCCN(C)C)C3)c3c(N)ncnn23)C1 [Example 364, (R)—N-(1-(7-(1-acetyl-2,5-dihydro-1H-pyrrol-3-yl)-4-aminopyrrolo[2,1-f][1,2,4]triazin-5-yl)piperidin-3-yl)-3-(2-(dimethylamino)ethoxy)-1H-indole-2-carboxamide] |
| 21 | COC(=O)N1CC=C(c2cc(N3CCC[C@@H](NC(=O)c4[nH]c5ccccc5c4OCCN(C)C)C3)c3c(N)ncnn23)C1 [Example 365, Methyl (R)-3-(4-amino-5-(3-(3-(2-(dimethylamino)ethoxy)-1H-indole-2-carboxamido)piperidin-1-yl)pyrrolo [2,1-f][1,2,4]triazin-7-yl)-2,5-dihydro-1H-pyrrole-1-carboxylate] |
| 32 | CN(C)CCOc1c(C(=O)N[C@@H]2CCCN(c3cc(-c4ccnc(C#N)c4)n4ncnc(N)c34)C2)[nH]c2ccccc12 [Example 366, (R)-N-(1-(4-amino-7-(2-cyanopyridin-4-yl)pyrrolo[2,1-f][1,2,4]triazin-5-yl)piperidin-3-yl)-3-(2-(dimethylamino)ethoxy)-1H-indole-2-carboxamide] |
| 41 | CN(C)CCOc1c(C(=O)N[C@@H]2CCCN(c3cc(-c4ccc(C#N)nc4)n4ncnc(N)c34)C2)[nH]c2ccccc12 [Example 367, (R)-N-(1-(4-amino-7-(6-cyanopyridin-3-yl)pyrrolo[2,1-f][1,2,4]triazin-5-yl)piperidin-3-yl)-3-(2-(dimethylamino)ethoxy)-1H-indole-2-carboxamide] |
| 36 | CN(C)CCOc1c(C(=O)N[C@@H]2CCCN(c3cc(-c4ccc(C#N)c(F)c4)n4ncnc(N)c34)C2)[nH]c2ccccc12 [Example 368, (R)-N-(1-(4-amino-7-(4-cyano-3-fluorophenyl)pyrrolo[2,1-f][1,2,4]triazin-5-yl)piperidin-3-yl)-3-(2-(dimethylamino)ethoxy)-1H-indole-2-carboxamide] |
| 196 | CC(C)Cn1cc(-c2cc(N3CCC[C@@H](NC(=O)c4[nH]c5ccccc5c4OCCN(C)C)C3)c3c(N)ncnn23)ccc1=O [Example 369, (R)-N-(1-(4-amino-7-(1-isobutyl-6-oxo-1,6-dihydropyridin-3-yl)pyrrolo[2,1-f][1,2,4]triazin-5-yl)piperidin-3-yl)-3-(2-(dimethylamino)ethoxy)-1H-indole-2-carboxamide] |
| 18 | CC(=O)N1CC=C(c2cc(N3CCC[C@@H](NC(=O)c4sc(C5CC5)cc4OCCN(C)C)C3)c3c(N)ncnn23)C1 [Example 370, (R)—N-(1-(7-(1-acetyl-2,5-dihydro-1H-pyrrol-3-yl)-4-aminopyrrolo[2,1-f][1,2,4]triazin-5-yl)piperidin-3-yl)-5-cyclopropyl-3-(2-(dimethylamino)ethoxy)thiophene-2-carboxamide] |
| 1 | COC(=O)N1CC=C(c2cc(N3CCC[C@@H](NC(=O)c4sc(C5CC5)cc4OCCN(C)C)C3)c3c(N)ncnn23)C1 [Example 371, Methyl (R)-3-(4-amino-5-(3-(5-cyclopropyl-3-(2-(dimethylamino)ethoxy)thiophene-2-carboxamido)piperidin-1-yl)pyrrolo[2,1-f][1,2,4]triazin-7-yl)-2,5-dihydro-1H-pyrrole-1-carboxylate] |
| 2 | CN(C)CCOc1cc(C2CC2)sc1C(=O)N[C@@H]1CCCN(c2cc(-c3ccc(C#N)nc3)n3ncnc(N)c23)C1 [Example 372, (R)-N-(1-(4-amino-7-(6-cyanopyridin-3-yl)pyrrolo[2,1-f][1,2,4]triazin-5-yl)piperidin-3-yl)-5-cyclopropyl-3-(2-(dimethylamino)ethoxy) thiophene-2-carboxamide] |
| 2 | CN(C)CCOc1cc(C2CC2)sc1C(=O)N[C@@H]1CCCN(c2cc(-c3ccc(C(N)=O)c(F)c3)n3ncnc(N)c23)C1 [Example 373, (R)-N-(1-(4-amino-7-(4-carbamoyl-3-fluorophenyl)pyrrolo[2,1-f][1,2,4]triazin-5-yl)piperidin-3-yl)-5-cyclopropyl-3-(2-(dimethylamino)ethoxy) thiophene-2-carboxamide] |
| 111 | CN(C)CCOc1cc(C2CC2)sc1C(=O)N[C@@H]1CCCN(c2cc(-c3cncnc3)n3ncnc(N)c23)C1 [Example 374, (R)-N-(1-(4-amino-7-(pyrimidin-5-yl)pyrrolo[2,1-f][1,2,4]triazin-5-yl)piperidin-3-yl)-5-cyclopropyl-3-(2-(dimethylamino)ethoxy) thiophene-2-carboxamide] |
| 21 | CN(C)CCOc1cc(C2CC2)sc1C(=O)N[C@@H]1CCCN(c2cc(-c3ccc(=O)n(CC(F)F)c3)n3ncnc(N)c23)C1 [Example 375, (R)-N-(1-(4-amino-7-(1-(2,2-difluoroethyl)-6-oxo-1,6-dihydropyridin-3-yl)pyrrolo[2,1-f] [1,2,4]triazin-5-yl)piperidin-3-yl)-5-cyclopropyl-3-(2-(dimethylamino)ethoxy)thiophene-2-carboxamide] |
| 7 | CC(=O)N1CC=C(c2cc(N3CCC[C@@H](NC(=O)c4sc(C5CC5)cc4OC4CCN(C)CC4)C3)c3c(N)ncnn23)C1 [Example 376, (R)—N-(1-(7-(1-acetyl-2,5-dihydro-1H-pyrrol-3-yl)-4-aminopyrrolo[2,1-f][1,2,4]triazin-5-yl)piperidin-3-yl)-5-cyclopropyl-3-((1-methylpiperidin-4-yl)oxy)thiophene-2-carboxamide] |
| 3 | CC(=O)N1CC=C(c2cc(N3CCC[C@@H](NC(=O)c4sc(C5CC5)cc4OC4CCNCC4)C3)c3c(N)ncnn23)C1 [Example 376E, (R)—N-(1-(7-(1-acetyl-2,5-dihydro-1H-pyrrol-3-yl)-4-aminopyrrolo[2,1-f][1,2,4]triazin-5-yl)piperidin-3-yl)-5-cyclopropyl-3-(piperidin-4-yloxy)thiophene-2-carboxamide] |
